Literature values, collected in patent US7196180B2, “Functionalized derivatives of hyaluronic acid, formation of hydrogels in situ using same, and methods for making and using same” (Orthogene LLC, priority 1998, dated 2007).

For NCCCCN [putrescine], the pKa is listed as greater than 9.
